In general, Ki refers to the equilibrium dissociation constant of an inhibitor or competing ligand from its target.

Molecules are shown by their SMILES.

human PDE10A2, sequence (Q9Y233 267-1055): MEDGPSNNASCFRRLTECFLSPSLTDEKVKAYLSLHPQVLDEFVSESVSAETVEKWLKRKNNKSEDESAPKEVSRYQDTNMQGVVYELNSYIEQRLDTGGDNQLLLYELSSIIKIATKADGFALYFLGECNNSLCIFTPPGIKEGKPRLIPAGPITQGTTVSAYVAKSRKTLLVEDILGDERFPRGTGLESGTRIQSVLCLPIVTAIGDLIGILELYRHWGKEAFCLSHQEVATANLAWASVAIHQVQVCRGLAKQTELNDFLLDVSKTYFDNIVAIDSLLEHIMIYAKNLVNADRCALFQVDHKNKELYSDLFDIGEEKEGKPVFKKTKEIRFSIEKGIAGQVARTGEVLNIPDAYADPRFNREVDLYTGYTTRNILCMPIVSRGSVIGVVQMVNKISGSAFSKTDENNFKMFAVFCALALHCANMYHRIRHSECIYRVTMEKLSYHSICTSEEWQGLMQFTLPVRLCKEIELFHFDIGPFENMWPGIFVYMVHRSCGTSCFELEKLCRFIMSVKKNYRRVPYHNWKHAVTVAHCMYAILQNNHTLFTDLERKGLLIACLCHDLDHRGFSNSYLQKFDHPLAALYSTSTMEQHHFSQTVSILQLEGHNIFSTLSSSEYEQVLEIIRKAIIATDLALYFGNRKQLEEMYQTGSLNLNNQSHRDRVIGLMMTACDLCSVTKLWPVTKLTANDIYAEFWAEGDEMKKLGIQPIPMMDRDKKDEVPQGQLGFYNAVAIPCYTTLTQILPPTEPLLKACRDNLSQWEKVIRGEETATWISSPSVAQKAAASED

This experiment has as its target human PDE10A2 (Homo sapiens (Human), UniProt Q9Y233). Description: PDE10 fluorescence polarization (IMAP FP) inhibition assay. As to conditions: FAM-labeled cAMP 50 nM, room temperature, read-out: PDE10a Ki. The class given is biochemical. As for the experimental part:
The activity of the compounds in accordance with the present invention as PDE10 inhibitors may be readily determined without undue experimentation using a fluorescence polarization (FP) methodology that is well known in the art (Huang, W., et al., J. Biomol Screen, 2002, 7: 215).
In a typical experiment the PDE10 inhibitory activity of the compounds of the present invention was determined in accordance with the following experimental method. PDE10A2 was amplified from human fetal brain cDNA (Clontech, Mountain View, Calif.) using a forward primer corresponding to nucleotides 56-77 of human PDE10A2 (Accession No. AF127480, Genbank Identifier 4894716), containing a Kozak consensus sequence, and a reverse primer corresponding to nucleotides 2406-2413 of human PDE10A2 (Accession No. AF127480, Genbank Identifier 4894716). Amplification with Easy-A polymerase (Stratagene, La Jolla, Calif.) was 95° C. for 2 minutes followed by thirty three cycles of 95° C. for 40 seconds, 55° C. for 30 seconds, and 72° C. for 2 minutes 48 seconds. Final extension was 72° C. for 7 minutes. The PCR product was TA cloned into pcDNA3.2-TOPO (Invitrogen, Carlsbad, Calif.) according to standard protocol. AD293 cells with 70-80% confluency were transiently transfected with human PDE10A2/pcDNA3.2-TOPO using Lipofectamine 2000 according to manufacturer specifications (Invitrogen, Carlsbad, Calif.). Cells were harvested 48 hours post-transfection and lysed by sonication (setting 3, 10×5 sec pulses) in a buffer containing 20 mM HEPES, 1 mM EDTA and protease inhibitor cocktail (Roche). Lysate was collected by centrifugation at 75,000×g for 20 minutes. Supernatant containing the cytoplasmic fraction was used for evaluation of PDE10A2 activity. The fluorescence polarization assay for cyclic nucleotide phosphodiesterases was performed using an IMAP® FP kit supplied by Molecular Devices, Sunnyvale, Calif. (product # R8139). IMAP® technology has been applied previously to phosphodiesterase assays (Huang, W., et al., J. Biomol Screen, 2002, 7: 215). Assays were performed at room temperature in 384-well microtiter plates with an incubation volume of 20.2 μL. Solutions of test compounds were prepared in DMSO and serially diluted with DMSO to yield 8 μL of each of 10 solutions differing by 3-fold in concentration, at 32 serial dilutions per plate. 100% inhibition is determined using a known PDE10 inhibitor, which can be any compound that is present at 5,000 times its Ki value in the assay described as follows, such as papaverine (see Siuciak, et al. Neuropharmacology (2006) 51:386-396; Becker, et al. Behav Brain Res (2008) 186(2):155-60; Threlfell, et al., J Pharmacol Exp Ther (2009) 328(3):785-795), 2-{4-[pyridin-4-yl-1-(2,2,2-trifluoroethyl)-1H-pyrazol-3-yl]phenoxymethyl}quinoline succinic acid or 2-[4-(1-methyl-4-pyridin-4-yl-1H-pyrazol-3-yl)-phenoxymethyl]quinoline succinic acid (see Schmidt, et al. J Pharmacol Exp Ther (2008) 325:681-690; Threlfall, et al., J Pharmacol Exp Ther (2009) 328(3): 785-795). 0% of inhibition is determined by using DMSO (1% final concentrations).
A Labcyte Echo 555 (Labcyte, Sunnyvale, Calif.) is used to dispense 200 nL from each well of the titration plate to the 384 well assay plate. A solution of enzyme (1/1600 dilution from aliquots; sufficient to produce 20% substrate conversion) and a separate solution of FAM-labeled cAMP PDE from Molecular Devices (product # R7506), at a final concentration of 50 nM are made in the assay buffer (10 mM Tris HCl, pH 7.2, 10 mM MgCl2, 0.05% NaN3 0.01% Tween-20, and 1 mM DTT). The enzyme and the substrate are then added to the assay plates in two consecutive additions of 10 μL, and then shaken to mix. The reaction is allowed to proceed at room temperature for 30 minutes. A binding solution is then made from the kit components, comprised of 80% Solution A, 20% Solution B and binding reagent at a volume of 1600 the total binding solution. […]
(In general: Polarisation of emitted light reports the rotation of a fluorescent probe.)
As to `COc1ccc(Cc2nc(C)nn2-c2cc([C@H]3C[C@H]3c3ccc4ncccc4n3)nc(C)n2)cc1OC` (relative stereo) [Cpd 34, Cis-2-(2-(6-(5-(3,4-dimethoxybenzyl)-3-methyl-1H-1,2,4-triazol-1-yl)-2-methylpyrimidin-4-yl)cyclopropyl)-1,5-naphthyridine], the Ki stood at 0.068 nM.
The value for `Cc1cc(-n2nc(C)nc2C)cc([C@@H]2C[C@H]2c2nc3ccccc3n2C)n1` (relative stereo) [Cpd 108, trans-2-{2-[4-(3,5-dimethyl-1H-1,2,4-triazol-1-yl)-6-methylpyridin-2-yl]cyclopropyl}-1-methyl-1H-benzimidazole] was 14.2 nM; that for `Cc1nc(C)n(-c2cc([C@H]3C[C@@H]3c3nc4ccccc4n3C)nc(C(F)(F)F)n2)n1` (relative stereo) [Cpd 109, trans-2-{2-[6-(3,5-dimethyl-1H-1,2,4-triazol-1-yl)-2-(trifluoromethyl)pyrimidin-4-yl]cyclopropyl}-1-methyl-1H-benzimidazole] was 1.4 nM.
On to `Cc1cc([C@H]2C[C@@H]2c2nc3ccccc3n2C)cc(-n2nc(C)nc2C)n1` (relative stereo) [Cpd 110, trans-2-{2-[2-(3,5-dimethyl-1H-1,2,4-triazol-1-yl)-6-methylpyridin-4-yl]cyclopropyl}-1-methyl-1H-benzimidazole], for which the Ki stood at 18.4 nM.
The value for `COc1nc([C@H]2C[C@@H]2c2nc3ccccc3n2C)cc(-n2nc(C)nc2C)n1` (relative stereo) [Cpd 111, trans-2-{2-[6-(3,5-dimethyl-1H-1,2,4-triazol-1-yl)-2-methoxypyrimidin-4-yl]cyclopropyl}-1-methyl-1H-benzimidazole] was 1.3 nM; that for `Cc1nc(C)n(-c2cc([C@H]3C[C@@H]3c3nc4ccccc4n3C)nc(C3CC3)n2)n1` (relative stereo) [Cpd 112, trans-2-{2-[2-cyclopropyl-6-(3,5-dimethyl-1H-1,2,4-triazol-1-yl)pyrimidin-4-yl]cyclopropyl}-1-methyl-1H-benzimidazole] was 0.68 nM; that for `Cc1nc(C)n(-c2cc([C@H]3C[C@@H]3c3nc4ccccc4n3C)nc(NC(C)C)n2)n1` (relative stereo) [Cpd 115, trans-4-(3,5-dimethyl-1H-1,2,4-triazol-1-yl)-6-[2-(1-methyl-1H-benzimidazol-2-yl)cyclopropyl]-N-(1-methylethyl)pyrimidin-2-amine] was 1.9 nM.
The value for `Cc1nc(C)n(-c2cc([C@H]3C[C@@H]3c3nc4ccccc4n3C)nc(NC(C)(C)C)n2)n1` (relative stereo) [Cpd 118, trans-N-tert-butyl-4-(3,5-dimethyl-1H-1,2,4-triazol-1-yl)-6-[2-(1-methyl-1H-benzimidazol-2-yl)cyclopropyl]pyrimidin-2-amine] was 1.7 nM.
Consider `CCc1nc([C@H]2C[C@@H]2c2nc3ccccc3n2C)cc(-n2nc(C)nc2C)n1` (relative stereo) [Cpd 119, trans-2-{2-[6-(3,5-dimethyl-1H-1,2,4-triazol-1-yl)-2-ethylpyrimidin-4-yl]cyclopropyl}-1-methyl-1H-benzimidazole], for which the Ki came out at 1.2 nM.
On to `Cc1nc(C)n(-c2cc([C@H]3C[C@@H]3c3nc4ccccc4n3C)nc(OCC3CC3)n2)n1` (relative stereo) [Cpd 120, trans-2-{2-[2-(cyclopropylmethoxy)-6-(3,5-dimethyl-1H-1,2,4-triazol-1-yl)pyrimidin-4-yl]cyclopropyl}-1-methyl-1H-benzimidazole], for which the Ki is 1.1 nM.
The value for `Cc1nc(C)n(-c2cc([C@H]3C[C@@H]3c3nc4ccccc4n3C)nc(N3CCN(C)CC3)n2)n1` (relative stereo) [Cpd 121, trans-2-{2-[6-(3,5-dimethyl-1H-1,2,4-triazol-1-yl)-2-(4-methylpiperazin-1-yl)pyrimidin-4-yl]cyclopropyl}-1-methyl-1H-benzimidazole] was 3.1 nM; that for `Cc1nc(C)n(-c2cc([C@H]3C[C@@H]3c3nc4ccccc4n3C)nc(OCCF)n2)n1` (relative stereo) [Cpd 122, trans-2-{2-[6-(3,5-dimethyl-1H-1,2,4-triazol-1-yl)-2-(2-fluoroethoxy)pyrimidin-4-yl]cyclopropyl}-1-methyl-1H-benzimidazole] was 1.2 nM.
To `Cc1nc(C)n(-c2cc([C@H]3C[C@@H]3c3nc4ccccc4n3C)nc(N)n2)n1` (relative stereo) [Cpd 123, trans-4-(3,5-dimethyl-1H-1,2,4-triazol-1-yl)-6-[2-(1-methyl-1H-benzimidazol-2-yl)cyclopropyl]pyrimidin-2-amine] belongs 4.2 nM; to `Cc1nc(C)n(-c2cc([C@H]3C[C@@H]3c3nc4ccccc4n3C)nc(OCC(F)(F)F)n2)n1` (relative stereo) [Cpd 124, trans-2-{2-[6-(3,5-dimethyl-1H-1,2,4-triazol-1-yl)-2-(2,2,2-trifluoroethoxy)pyrimidin-4-yl]cyclopropyl}-1-methyl-1H-benzimidazole], 1.5 nM.
The value for `Cc1nc(C)n(-c2cc([C@@H]3C[C@H]3c3nc4ccccc4n3C)nc(O)n2)n1` (relative stereo) [Cpd 125, trans-4-(3,5-dimethyl-1H-1,2,4-triazol-1-yl)-6-[2-(1-methyl-1H-benzimidazol-2-yl)cyclopropyl]pyrimidin-2-ol] was 19 nM; that for `Cc1nc(C)n(-c2cc([C@H]3C[C@@H]3c3nc4ccccc4n3C)nc(N3CCNCC3)n2)n1` (relative stereo) [Cpd 126, trans-2-{2-[6-(3,5-dimethyl-1H-1,2,4-triazol-1-yl)-2-piperazin-1-ylpyrimidin-4-yl]cyclopropyl}-1-methyl-1H-benzimidazole] was 2 nM.
`Cc1nc([C@@H]2C[C@H]2c2ccc3ccccc3n2)cc(-n2nc(C)nc2C)n1` (relative stereo) [Cpd 127, trans-2-{2-[6-(3,5-dimethyl-1H-1,2,4-triazol-1-yl)-2-methylpyrimidin-4-yl]cyclopropyl}quinoline]: the Ki was 6 nM.
The value for `Cc1nc(C)n(-c2cc([C@H]3C[C@@H]3c3nc4ccccc4n3C)cnn2)n1` (relative stereo) [Cpd 128, trans-2-{2-[6-(3,5-dimethyl-1H-1,2,4-triazol-1-yl)pyridazin-4-yl]cyclopropyl}-1-methyl-1H-benzimidazole] was 38 nM; that for `Cc1nc([C@H]2C[C@@H]2c2nc3ccccc3s2)cc(-n2nc(C)nc2C)n1` (relative stereo) [Cpd 129, trans-2-{2-[6-(3,5-dimethyl-1H-1,2,4-triazol-1-yl)-2-methylpyrimidin-4-yl]cyclopropyl}-1,3-benzothiazole] was 43 nM.
`Cc1nc([C@@H]2C[C@H]2c2nc3ccccc3n2CC2CCCCO2)cc(-n2nc(C)nc2C)n1` (stereo in doubt) [Cpd 70, 2-{2-[6-(3,5-dimethyl-1H-1,2,4-triazol-1-yl)-2-methylpyrimidin-4-yl]cyclopropyl}-1-(tetrahydro-2H-pyran-2-ylmethyl)-1H-benzimidazole]: the Ki worked out at 6 nM.
The value for `Cc1nc([C@@H]2C[C@H]2c2nc3ccccc3n2C(C)C)cc(-n2nc(C)nc2C)n1` (stereo in doubt) [Cpd 71, 2-{2-[6-(3,5-dimethyl-1H-1,2,4-triazol-1-yl)-2-methylpyrimidin-4-yl]cyclopropyl}-1-(1-methylethyl)-1H-benzimidazole] was 13.6 nM.

(Values after patent US9200001B2, “Triazolyl PDE10 inhibitors” (Merck Sharp & Dohme Corp., priority 2011, dated 2015).)
